From patent publication EP4775589A1, “PHARMACEUTICAL COMPOSITION COMPRISING A PEPTIDE OR A COMBINATION OF PEPTIDES AGONISTIC TO THE MAS, AT1 AND AT2 RECEPTORS” (Pontificia Universidad Católica de Chile, priority 2023, dated 2025) come the findings set out here.

For the assay, the system named is aortic rings pre-contracted with phenylephrine. Set-up: species or system Wistar Kyoto rats. As to the method:
Ten-week-old male Wistar Kyoto rats were anesthetized with ketamine (35 mg/kg) and xylazine (7 mg/kg) administered intraperitoneally. The aortas were removed, dissected from the extravascular connective tissue, and cut into 3 mm long rings in fresh Krebs buffer pH 7.4 (KRB, 120 mM NaCl, 25 mM NaHCO3, 5 mM glucose, 4.8 mM KCI, 2.5 mM CaCl2, 1.2 mM MgSO4, […], and 1.2 mM KH2PO4) freshly bubbled with 5% CO2 in air. They were then mounted on a wire myograph (DMT 620M) and placed in an organ bath with KRB, pH 7.4 at 37°C with constant bubbling and equilibrated for 30 min at a tension of 1.5 g. The vasodilator response of ^DH^DF^DP^DH^DI^DY^DV^DR^DD^LD^LR^LV^LY^LI^LH^LP (SEQ ID NO: 1), which corresponds to a fusion of the angiotensin-(1-9) retro-enantio peptide (D-amino acids, N-terminal to C-terminal direction: ^DH^DF^DP^DH^DI^DY^DV^DR^DD (SEQ ID NO: 2)) and the angiotensin-(1-7) peptide (L-amino acids, N-terminal to C-terminal direction: ^LD^LR^LV^LY^LI^LH^LP (SEQ ID NO: 3) were evaluated in dose-response curves [10^-18 to 10^-4 M] to these molecules in baths with aortic rings pre-contracted with phenylephrine 10^-7 M. Carbacol (10^-6-10^-4 M) was used as a relaxation control. The peptides were added in cumulative concentrations to the baths when the vasoconstrictor response to phenylephrine reached its maximum level. […]

Where a SMILES comes first, the peptide text is derived from it. [ ]: non-standard residue; d: D form.

In the case of `CC[C@@H](C)[C@@H](NC(=O)[C@@H](Cc1c[nH]cn1)NC(=O)[C@H]1CCCN1C(=O)[C@@H](Cc1ccccc1)NC(=O)[C@H](N)Cc1c[nH]cn1)C(=O)N[C@H](Cc1ccc(O)cc1)C(=O)N[C@@H](C(=O)N[C@H](CCCNC(=N)N)C(=O)N[C@H](CC(=O)O)C(=O)N[C@@H](CC(=O)O)C(=O)N[C@@H](CCCNC(=N)N)C(=O)N[C@H](C(=O)N[C@@H](Cc1ccc(O)cc1)C(=O)N[C@H](C(=O)N[C@@H](Cc1c[nH]cn1)C(=O)N1CCC[C@H]1C(=O)O)[C@@H](C)CC)C(C)C)C(C)C` [HP16, ^DH^DF^DP^DH^DI^DY^DV^DR^DD^LD^LR^LV^LY^LI^LH^LP], the EC50 – broadly, the concentration giving half of the maximal effect – was 0.00509 nM.

In turn, `CC[C@@H](C)[C@@H](NC(=O)[C@@H](Cc1c[nH]cn1)NC(=O)[C@H]1CCCN1C(=O)[C@@H](Cc1ccccc1)NC(=O)[C@H](N)Cc1c[nH]cn1)C(=O)N[C@H](Cc1ccc(O)cc1)C(=O)N[C@@H](C(=O)N[C@H](CCCNC(=N)N)C(=O)N[C@H](CC(=O)O)C(=O)O)C(C)C` [RI-Ang-(1-9), ^DH^DF^DP^DH^DI^DY^DV^DR^DD] (H-[dH][dF][dP][dH][dI][dY][dV][dR][dD]-OH) had an EC50 of 0.0767 nM.
